These results are taken from patent US6384051B1, “Method of treating or inhibiting colonic polyps” (American Cyanamid Company, priority 2000, dated 2002).

For orientation: melting point means the temperature, or range, at which the solid turns liquid.

Where a name gives a salt, the structure may show the parent alone. Bounds are passed on as bounds.

Take `COc1cc2ncc(C#N)c(Nc3ccc(Cl)cc3F)c2cc1OC` [Example 228, 4-(4-Chloro-2-fluoro-phenylamino)-6,7-dimethoxy-quinoline-3-carbonitrile]: the melting point fell in the range of 139 to 141 °C.
With `COc1ccc2c(Nc3ccc(C)c(O)c3)c(C#N)cnc2c1` [Example 281, 4-(3-Hydroxy-4-methyl-phenylamino)-7-methoxy-quinoline-3-carbonitrile] the figure was more than 250 °C; with `COc1cc2ncc(C#N)c(Nc3ccc(O)cc3Cl)c2cc1OC` [Example 296, 4-(2-Chloro-4-hydroxy-phenylamino)-6,7-dimethoxy-quinoline-3-carbonitrile], more than 250 °C; with `COCC#CC(=O)Nc1ccc2ncc(C#N)c(Nc3cccc(Br)c3)c2c1` [Example 330, N-[4-[(3-Bromophenyl)amino]-3-cyano-6-quinolinyl]-4-methoxy-2-butynamide], 197 °C (dec.).
Compound `COc1cc2ncc(C#N)c(Nc3ccc(Cl)c(C(F)(F)F)c3)c2cc1OC` [Example 338, 4-(4-Chloro-3-trifluoromethylphenylamino)-6,7-dimethoxyquinoline-3-carbonitrile] displayed a melting point of 265 to 267 °C.
For the compound `COCC#CC(=O)Nc1ccc2ncc(C#N)c(Nc3cccc(Br)c3)c2c1` [Example 60, N-[4-[(3-Bromophenyl)amino]-3-cyano-6-quinolinyl]-4-methoxy-2-butynamide], the melting point was 198 to 202 °C (dec.).
In the case of `COc1ccc(OC)c2c(Nc3cc(O)c(Cl)cc3F)c(C#N)cnc12` [Example 243, 4-(4-Chloro-2-fluoro-5-hydroxy-phenylamino)-5,8-dimethoxy-quinoline-3-carbonitrile], the melting point is 240 °C (dec.).
`CCN(CC)CC#CC(=O)Nc1ccc2ncc(C#N)c(Nc3ccc(F)c(Cl)c3)c2c1` [Example 189, N-[4-[(3-Chloro-4-fluorophenyl)amino]-3-cyano-6-quinolinyl]-4-diethylamino-2-butynamide]: the melting point fell in the range of 117 to 120 °C.
Consider `COc1cc2ncc(C#N)c(Nc3cccc(C(N)=O)c3)c2cc1OC` [Example 247, 3-(3-Cyano-6,7-dimethoxy-quinolin-4-ylamino)-benzamide], for which the melting point lay in the range of 253 to 255 °C.
In turn, `COc1cc2ncc(C#N)c(Nc3ccc(F)cc3)c2cc1OC` [Example 46, 4-[(4-Fluorophenyl)amino]-6,7-dimethoxy-3-quinolinecarbonitrile] had a melting point of 282 to 285 °C.
For `CC(C)N(CC#CC(=O)Nc1ccc2ncc(C#N)c(Nc3cccc(Br)c3)c2c1)C(C)C` [Example 192, N-[4-[(3-Bromophenyl)amino]-3-cyano-6-quinolinyl]-4-diisopropylamino-2-butynamide], the melting point was 130 °C (dec.).
As for `CCc1ccc(Nc2c(C#N)cnc3cc(OC)c(OC)cc23)cc1` [Example 335, 4-(4-Ethylphenylamino)-6,7-dimethoxyquinoline-3-carbonitrile], the melting point was 248 to 250 °C.
`COc1cc2c(Nc3ccc(Cl)cc3F)c(C#N)cnc2c(OC)c1OC` [Example 234, 4-(4-Chloro-2-fluoro-phenylamino)-6,7,8-trimethoxy-quinoline-3-carbonitrile] yielded a melting point of 166 to 168 °C.
With `COc1cc2ncc(C#N)c(Nc3ccc(C)c(Br)c3)c2cc1OC` [Example 248, 4-(3-Bromo-4-methyl-phenylamino)-6,7-dimethoxy-quinoline-3-carbonitrile] the figure was 292 to 294 °C; with `COc1ccc2c(Nc3cc(O)c(Cl)cc3F)c(C#N)cnc2c1` [Example 282, 4-(4-Chloro-2-fluoro-5-hydroxy-phenylamino)-7-methoxy-quinoline-3-carbonitrile], 240 °C (dec.); with `COc1cc2ncc(C#N)c(Nc3cccc(N(C)C)c3)c2cc1OC` [Example 366, 4-(3-Dimethylamino-phenylamino)-6,7-dimethoxy-quinoline-3-carbonitrile], 246 to 249 °C.
For `COc1cc2ncc(C#N)c(Nc3ccc(O)c(Cl)c3)c2cc1OC` [Example 249, 4-(3-Chloro-4-hydroxy-phenylamino)-6,7-dimethoxy-quinoline-3-carbonitrile], the melting point is 230 to 232 °C.
As to `COc1ccc(Nc2c(C#N)cnc3cc(OC)c(OC)cc23)c(C)c1` [Example 367, 6,7-Dimethoxy-4-(4-methoxy-2-methyl-phenylamino)-quinoline-3-carbonitrile], the melting point is > 131 °C (dec.).
As to `COc1cccc2c(Nc3cccc(N(C)C)c3)c(C#N)cnc12` [Example 277, 4-(3-Dimethylamino-phenylamino)-8-methoxy-quinoline-3-carbonitrile], the melting point lay within 222 to 225 °C.
Regarding `COc1cc2ncc(C#N)c(Nc3ccc(C)c(Cl)c3)c2cc1OC` [Example 370, 4-(3-Chloro-4-methyl-phenylamino)-6,7-dimethoxy-quinoline-3-carbonitrile], the melting point is more than 250 °C.
For `COc1ccc(Cl)cc1Nc1c(C#N)cnc2cc(OC)c(OC)cc12` [Example 372, 4-(5-Chloro-2-methoxyphenylamino)-6,7-dimethoxy-quinoline-3-carbonitrile], the melting point lay within 200 to 202 °C.
For the compound `COc1cc2c(Nc3ccccc3SC)c(C#N)cnc2cc1OCCCN1CCOCC1` [Example 314, 6-Methoxy-4-(2-methylsulfanyl-phenylamino)-7-(3-morpholin-4-yl-propoxy)-quinoline-3-carbonitrile], the melting point is 179 to 180 °C.
`COc1cc2ncc(C#N)c(Nc3cccc(O)c3C)c2cc1OC` [Example 245, 4-(3-Hydroxy-2-methyl-phenylamino)-6,7-dimethoxy-quinoline-3-carbonitrile] gave a melting point of 255 to 257 °C.
With `COc1ccc(OC)c2c(Nc3cccc(N(C)C)c3)c(C#N)cnc12` [Example 242, 4-(3-Dimethylamino-phenylamino)-5,8-dimethoxy-quinoline-3-carbonitrile] the figure was 103 to 105 °C.
With `COc1cc2c(Nc3ccc(Cl)cc3F)c(C#N)cnc2cc1OCc1ccccc1` (as salt: hydrochloride) [Example 322, 7-Benzyloxy-4-(4-chloro-2-fluoro-phenylamino)-6-methoxy-quinoline-3-carbonitrile] the figure was 241 to 243 °C.
`COc1cc2ncc(C#N)c(Nc3ccc(CCO)cc3)c2cc1OC` [Example 299, 4-[4-(2-Hydroxy-ethyl)-phenylamino]-6,7-dimethoxy-quinoline-3-carbonitrile] yielded a melting point of 208 to 210 °C.
The compound `COc1cc2ncc(C#N)c(Nc3cccc(CO)c3C)c2cc1OC` [Example 333, 4-(3-Hydroxymethyl-2-methylphenylamino)-6,7-dimethoxyquinoline-3-carbonitrile] yielded a melting point of 123 to 125 °C.
In turn, `COc1cc2ncc(C#N)c(Nc3cccc(CO)c3)c2cc1OC` [Example 48, 4-[(3-(hydroxymethyl)phenyl)amino]-6,7-dimethoxy-3-quinolinecarbonitrile] displayed a melting point of 250 to 255 °C.
With `COc1cc2c(Nc3cc(O)c(Cl)cc3F)c(C#N)cnc2c(OC)c1OC` [Example 244, 4-(4-Chloro-2-fluoro-5-hydroxy-phenylamino)-6,7,8-trimethoxy-quinoline-3-carbonitrile] the figure was 223 to 225 °C.
Consider `CN(C)CC#CC(=O)Nc1ccc2ncc(C#N)c(Nc3ccc(F)c(Cl)c3)c2c1` [Example 193, N-[4-[(3-Chloro-4-fluorophenyl)amino]-3-cyano-6-quinolinyl]-4-dimethylamino-2-butynamide], for which the melting point is 225 °C (dec.).
Turning to `COc1cc2ncc(C#N)c(Nc3ccc(C(F)(F)F)cc3)c2cc1OC` [Example 376, 6,7-Dimethoxy-4-(4-trifluoromethyl-phenylamino)-quinoline-3-carbonitrile], the melting point fell in the range of 116 to 118 °C.
Turning to `COc1cc2ncc(C#N)c(Nc3cc(C)ccc3O)c2cc1OC` [Example 295, 4-(2-Hydroxy-5-methyl-phenylamino)-6,7-dimethoxy-quinoline-3-carbonitrile], the melting point lay within 198 to 200 °C.
The compound `COc1cc2ncc(C#N)c(Nc3ccc(O)cc3O)c2cc1OC` [Example 300, 4-(2,4-Dihydroxy-phenylamino)-6,7-dimethoxy-quinoline-3-carbonitrile] had a melting point of more than 250 °C.
For `COc1cccc2c(Nc3ccc(Br)c(O)c3)c(C#N)cnc12` [Example 278, 4-(4-Bromo-3-hydroxy-phenylamino)-8-methoxy-quinoline-3-carbonitrile], the melting point is 146 °C (dec.).
With `COc1ccc(OC)c2c(Nc3ccc(C)c(O)c3)c(C#N)cnc12` [Example 239, 4-(3-Hydroxy-4-methyl-phenylamino)-5,8-dimethoxy-quinoline-3-carbonitrile] the figure was 240 to 242 °C; with `COc1cc2ncc(C#N)c(Nc3cc(Cl)c(O)c(Cl)c3)c2cc1OC` [Example 286, 4-(3,5-Dichloro-4-hydroxy-phenylamino)-6,7-dimethoxy-quinoline-3-carbonitrile], more than 250 °C.
`COc1ccc2ncc(C#N)c(Nc3cc(O)c(Cl)cc3F)c2c1` [Example 285, 4-(4-Chloro-2-fluoro-5-hydroxy-phenylamino)-6-methoxy-quinoline3-carbonitrile] yielded a melting point of 228 to 230 °C.
In the case of `N#Cc1cnc2cc3c(cc2c1Nc1cccc(Br)c1)OCO3` [Example 40, 8-[(3-Bromophenyl)amino]-[1,3]-dioxolo[4,5-g]quinoline-7-carbonitrile], the melting point is 201 to 205 °C.
`N#Cc1cnc2ccc(N)cc2c1Nc1ccc(F)c(Br)c1` [Example 196, 6-amino-4-[(3-Bromo-4-fluorophenyl)amino]-3-quinolinecarbonitrile] displayed a melting point of 210 to 212 °C.
Take `N#Cc1cnc2ccc(NC(=O)C#CCO)cc2c1Nc1cccc(Br)c1` [Example 57, N-[4-[(3-Bromophenyl)amino]-3-cyano-6-quinolinyl]-4-hydroxy-2-butynamide]: the melting point was 253 to 254 °C (dec.).
On to `COc1cccc2c(Nc3c(F)cc(F)cc3F)c(C#N)cnc12` [Example 280, 8-Methoxy-4-(2,4,6-trifluoro-phenylamino)-quinoline-3-carbonitrile], for which the melting point is 297 °C (dec.).
